Among the data in ChEMBL document CHEMBL1201862, “PubChem BioAssay data set” (2004) are AC50 and IC50 values, retold here.

Calls of active or inactive are those of the source.

Experiment [1] can be described thus: non-specific cell cytotoxicity, dose response, cytotoxicity control for PAX8 inhibitor project, plate reader, dry powder samples (AID 743021). The format is functional, cell-based.
Experiment [2] is described as follows: inhibitors of CMV-promoter luciferase reporter, dose response, counter-screen for Pax8 inhibitor project, cell-based, HEK293, luminescence, dry powder (AID 743020). The class given is functional.
The next experiment addresses Paired box protein Pax-8 (Homo sapiens, UniProt Q06710). Nature of the experiment: inhibitors of PAX8-driven TPO luciferase reporter, dose response, RMG-I cells, cherry-pick (AID 687027).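 Also: luciferase reporter driven by Pax8 target thyroperoxidase promoter measured by SteadyGlo luminescence.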 The format is functional, cell-based. On the technique in general: In a reporter assay the amount or activity of a reporter protein is the signal.
The nature of experiment [3]: cytotoxicity in COV362 ovarian cancer cells, dose response, cytotoxicity control for PAX8 inhibitor project, cell-based, plate reader, dry powder, SA12 (AID 743144). The format is functional.
A short description of experiment [4]: PAX5 activity inhibitors, dose response, selectivity assay for PAX8 inhibitor project, cell-based, plate reader, dry powder samples (AID 743047).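 Also: HEK293 cells carrying a Pax5 driven CD19 promoter luciferase reporter; potency of inhibitors that lower reporter luminescence.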 The format is functional.
Experiment [5] can be described thus: cytotoxicity dependent on PAX8, dose response, cell-based, plate reader, dry powder (AID 743049). The class given is functional.
Experiment [6] in a line: IOSE-T80 ovarian epithelial cell cytotoxicity, dose response, cytotoxicity control for PAX8 inhibitor project, plate reader, dry powder samples (AID 743045). The format is functional, cell-based.
Experiment [7] in a line: cytotoxicity in COV434 cells, dose response, cytotoxicity control for PAX8 inhibitor project, cell-based, plate reader, dry powder, SA7 (AID 743145). The format is functional.
Experiment [8] is described as follows: cytotoxicity in OVCAR8 ovarian cancer cells, dose response, PAX8 project, cell-based, plate reader, dry powder samples (AID 743197). The format is functional. The following applies: OVCAR-8.
A short description of experiment [9]: PAX2 cell-based inhibition, dose response, selectivity assay for PAX8 inhibitor project, plate reader, dry powder samples (AID 743048).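 Also: HEK293 cells carrying a WT1 promoter luciferase reporter driven by expressed Pax2; potency is for inhibition of Pax2 driven reporter signal.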 The class given is functional.
Experiment [10] is described as follows: cytotoxicity in OV-90 ovarian cancer cells, dose response, PAX8 inhibitor project, cell-based, plate reader, dry powder, SA8 (AID 743149). The class given is functional.
Experiment [11] can be described thus: cytotoxicity in OVCAR4 cells, dose response, cytotoxicity control for PAX8 inhibitor project, cell-based, plate reader, dry powder, SA11 (AID 743150). The format is functional. The following applies: OVCAR-4.
A short description of experiment [12]: IGROV1 ovarian cancer cell cytotoxicity, dose response, PAX8 inhibitor project, plate reader, dry powder samples (AID 743043). The class given is functional, cell-based. The conditions noted are these: IGROV-1.
Experiment [13] concerns the target T1, Scavenger receptor class B member 1 (Mus musculus, UniProt Q61009).
T1 sequence (Q61009 whole entry): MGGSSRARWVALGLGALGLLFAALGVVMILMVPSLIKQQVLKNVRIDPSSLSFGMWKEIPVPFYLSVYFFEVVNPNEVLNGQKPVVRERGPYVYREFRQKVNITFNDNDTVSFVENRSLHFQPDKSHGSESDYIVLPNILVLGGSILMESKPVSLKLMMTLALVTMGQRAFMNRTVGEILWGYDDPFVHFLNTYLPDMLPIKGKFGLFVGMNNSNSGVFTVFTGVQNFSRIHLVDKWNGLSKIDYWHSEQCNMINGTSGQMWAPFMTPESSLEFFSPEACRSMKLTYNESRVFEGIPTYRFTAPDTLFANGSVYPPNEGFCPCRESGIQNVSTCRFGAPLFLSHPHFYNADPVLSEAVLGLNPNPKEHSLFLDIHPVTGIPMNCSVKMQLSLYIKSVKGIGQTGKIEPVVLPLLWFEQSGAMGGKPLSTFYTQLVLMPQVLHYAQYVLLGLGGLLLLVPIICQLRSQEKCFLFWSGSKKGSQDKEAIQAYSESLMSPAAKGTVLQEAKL
Nature of the experiment: inhibitors of SR-BI dependent HDL uptake, dose response, ldlA[mSR-BI] CHO cells, fluorescence plate reader, dry powder, set 9 (AID 623880). The format is functional, cell-based.

In experiment [14] the target is T1, Scavenger receptor class B member 1. Nature of the experiment: inhibitors of SR-BI-mediated HDL uptake, dose response, cell-based, ldlA[mSR-BI] CHO, DiI fluorescence, dry powder, set 10 (AID 624029). The format is functional.
Another experiment deals with HEK293. In words: HEK293T cell cytotoxicity, dose response, cytotoxicity control, ATP luminescence, cherry-pick samples (AID 687005).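 Also: cells exposed to compound for 48 hours.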 The class given is functional, cell-based. The conditions noted are these: Homo sapiens.
Experiment [15] can be described thus: HEK293 Cytotoxicity Assay Measured in Cell-Based System Using Plate Reader - 7071-01_Inhibitor_Dose_CherryPick_Activity_Set2. The format is functional.
The target of a further experiment is Protein Wnt-3a (Mus musculus, UniProt P27467). Nature of the experiment: SAR analysis of small molecule antagonists of Gli-SUFU in a Wnt3a luminescent reporter assay. The format is functional.
For the next experiment, the target named is Mu-type opioid receptor (Homo sapiens, UniProt P35372). In words: Late-stage results from the probe development effort to identify antagonists of OPRK1: luminescence-based cell-based dose response OPRM1 counterscreen. The format is functional.
The target in experiment [16] is Delta-type opioid receptor (Homo sapiens, UniProt P41143). In words: Late-stage results from the probe development effort to identify antagonists of OPRK1: fluorescence-based cell-based dose response OPRD1 counterscreen. The class given is functional. Background: A counterscreen serves to expose hits that act by an unwanted route or on another target.
Experiment [17] concerns the target Potassium channel subfamily K member 3 (Homo sapiens, UniProt O14649). Nature of the experiment: TASK1 (KCNK3) potassium channel inhibitors, SAR follow-up, CHO cells, FluxOR thallium flux (AID 652212). The format is functional.

Sequence of Paired box protein Pax-8 (Q06710 whole entry): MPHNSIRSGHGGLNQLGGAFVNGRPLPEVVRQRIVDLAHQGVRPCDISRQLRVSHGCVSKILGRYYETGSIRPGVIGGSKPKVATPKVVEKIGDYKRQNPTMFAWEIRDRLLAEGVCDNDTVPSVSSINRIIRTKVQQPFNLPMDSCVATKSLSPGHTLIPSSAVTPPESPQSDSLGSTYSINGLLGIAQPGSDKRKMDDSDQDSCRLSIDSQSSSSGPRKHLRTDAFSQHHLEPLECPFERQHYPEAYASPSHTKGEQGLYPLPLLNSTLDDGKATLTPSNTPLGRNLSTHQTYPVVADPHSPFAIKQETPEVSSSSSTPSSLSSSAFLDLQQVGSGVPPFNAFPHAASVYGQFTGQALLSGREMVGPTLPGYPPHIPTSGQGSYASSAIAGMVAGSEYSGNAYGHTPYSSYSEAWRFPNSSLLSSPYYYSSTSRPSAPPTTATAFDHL
Sequence of Potassium channel subfamily K member 3 (O14649 whole entry): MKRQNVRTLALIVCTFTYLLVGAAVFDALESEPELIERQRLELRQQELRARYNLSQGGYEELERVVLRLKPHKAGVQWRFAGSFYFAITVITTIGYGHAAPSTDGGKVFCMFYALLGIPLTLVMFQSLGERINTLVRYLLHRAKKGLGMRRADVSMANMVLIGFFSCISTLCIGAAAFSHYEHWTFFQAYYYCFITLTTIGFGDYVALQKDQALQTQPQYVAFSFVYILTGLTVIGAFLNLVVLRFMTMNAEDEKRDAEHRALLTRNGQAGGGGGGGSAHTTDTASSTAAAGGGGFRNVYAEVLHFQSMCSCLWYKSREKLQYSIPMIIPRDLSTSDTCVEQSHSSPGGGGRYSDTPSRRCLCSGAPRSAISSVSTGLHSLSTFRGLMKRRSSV
Sequence of Delta-type opioid receptor (P41143 whole entry): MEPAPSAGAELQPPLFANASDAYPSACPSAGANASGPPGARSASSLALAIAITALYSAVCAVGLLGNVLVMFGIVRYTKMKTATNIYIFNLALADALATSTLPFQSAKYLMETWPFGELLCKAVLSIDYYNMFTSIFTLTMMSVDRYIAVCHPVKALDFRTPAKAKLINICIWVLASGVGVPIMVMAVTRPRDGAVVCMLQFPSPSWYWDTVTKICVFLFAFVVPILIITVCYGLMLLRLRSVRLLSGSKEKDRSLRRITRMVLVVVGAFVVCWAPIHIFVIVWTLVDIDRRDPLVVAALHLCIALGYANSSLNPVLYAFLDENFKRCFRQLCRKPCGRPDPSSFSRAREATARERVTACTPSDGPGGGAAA
Sequence of Mu-type opioid receptor (P35372 whole entry): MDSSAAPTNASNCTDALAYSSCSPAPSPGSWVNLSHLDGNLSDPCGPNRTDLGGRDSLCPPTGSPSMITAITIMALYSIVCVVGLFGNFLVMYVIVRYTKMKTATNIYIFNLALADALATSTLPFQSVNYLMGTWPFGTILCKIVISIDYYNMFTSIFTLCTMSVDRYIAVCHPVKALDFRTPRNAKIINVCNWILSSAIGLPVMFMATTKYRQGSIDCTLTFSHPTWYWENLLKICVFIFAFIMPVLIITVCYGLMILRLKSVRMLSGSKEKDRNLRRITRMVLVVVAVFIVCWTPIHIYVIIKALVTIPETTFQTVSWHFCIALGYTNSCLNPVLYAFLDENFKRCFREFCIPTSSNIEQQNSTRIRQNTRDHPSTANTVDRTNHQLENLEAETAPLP
Sequence of Protein Wnt-3a (P27467 whole entry): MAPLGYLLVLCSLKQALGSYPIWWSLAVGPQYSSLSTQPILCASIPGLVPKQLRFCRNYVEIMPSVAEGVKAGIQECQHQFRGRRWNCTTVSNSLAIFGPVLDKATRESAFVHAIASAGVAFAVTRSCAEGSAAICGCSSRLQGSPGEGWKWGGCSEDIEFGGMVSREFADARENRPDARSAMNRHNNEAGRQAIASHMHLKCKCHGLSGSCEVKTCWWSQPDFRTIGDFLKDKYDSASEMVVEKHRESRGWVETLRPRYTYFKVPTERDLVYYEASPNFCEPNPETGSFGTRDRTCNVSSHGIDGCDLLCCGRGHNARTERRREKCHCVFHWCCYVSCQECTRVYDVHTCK

As for `COc1ccccc1S(=O)(=O)N(C)C[C@H]1Oc2cc(C#CCC3CCCC3)ccc2S(=O)(=O)N([C@@H](C)CO)C[C@H]1C`, the AC50 – broadly, the concentration at which the activity in the assay is half-maximal – is 51.9 µM (active) in [1], 55.2 µM (active) in experiment [2] and 9.5 µM (active) at Paired box protein Pax-8.
Take `CCCNC(=O)N(C)C[C@H]1N[C@@H](CO)[C@@H]1c1ccc(C2=CCCCC2)cc1`: the AC50 was 10.7 µM (active) in experiment [3]; > 16 µM (inactive) in [4]; 10.1 µM (active) in experiment [5]; 25.9 µM (active) in experiment [6]; 18.2 µM (active) in experiment [7]; 14.4 µM (active) in experiment [8]. The AC50 in experiment [9] is 8.91 µM (active); in experiment [10], 14.5 µM (active); in [11], 6.07 µM (active); in [12] it was 16.3 µM (active); on Paired box protein Pax-8, 3.47 µM (active).
As to `COCC(=O)N1CCc2cc(-c3csc(NC(=O)c4cc(OC)cc(OC)c4)n3)ccc21`, the half-maximal activity concentration (AC50) is 0.00684 µM (active) in experiment [13] and 0.00538 µM (active) in experiment [14].
As for `Cc1ccc(S(=O)(=O)N2CC[C@@H]3[C@H](CO)Nc4ccc(-c5ccccc5F)cc4[C@@H]32)cc1`, the AC50 (in the experiment with HEK293; in experiment [15]) was 44.6 µM (active) throughout.
Regarding `N#Cc1ccc(C(=O)Nc2cc(N3CCCCC3)ncn2)cc1`, the IC50 (usually the concentration at which inhibition is half-maximal) on Protein Wnt-3a was > 21.8 µM (inactive).
In the case of `COC(=O)c1cc(Br)cnc1N1CCC(NC2CCCC2)CC1`, the IC50 at Mu-type opioid receptor is 4 µM (active); in experiment [16], 7 µM (active).
As for `CCOc1ccccc1NC(=O)c1cccc(NC(=O)C2CCCO2)c1` (configuration not stated), in [17], the half-maximal inhibitory concentration (IC50) was 0.129 µM (active).
